This experiment deals with kochia or mock cypress (Kochia scoparia, KCHSC). In words: Field trial, post-emergence foliar application, weed control rating 0-100%. In kind it is in vivo. The source says:
The (a) aminocyclopyrachlor or an agriculturally acceptable salt or ester thereof is mixed with or applied in combination with (b) aminopyralid or an agriculturally acceptable salt or ester thereof in an amount sufficient to induce a synergistic herbicidal effect. […] As described in the Herbicide Handbook of the Weed Science Society of America, Ninth Edition, 2007, p. 429, “‘synergism’ [is] an interaction of two or more factors such that the effect when combined is greater than the predicted effect based on the response to each factor applied separately.” Synergistic in the herbicide context can mean that the use of (a) and (b) as defined above results in an increased weed control effect compared to the weed control effects that are possible with the use of (a) or (b) alone. In some embodiments, the damage or injury to the undesired vegetation caused by the compositions and methods disclosed herein is evaluated using a scale from 0% to 100%, when compared with the untreated control vegetation, wherein 0% indicates no damage to the undesired vegetation and 100% indicates complete destruction of the undesired vegetation. […] 22 (1967)
In the Colby equation, the value E corresponds to the effect (plant damage or injury) that is to be expected if the activity of the individual compounds is additive. If the observed effect is higher than the value E calculated according to the Colby equation, then a synergistic effect is present according to the Colby equation.
Field trials were conducted with applications made to established grassland with naturally occurring weed populations. The target plants were treated with postemergence foliar applications when they were just emerged to the three-leaf stage and 0.6 centimeters (cm) (0.25 inches (in)) tall. All treatments were applied using a randomized complete block trial design, with 3 replications per treatment.
Treatments consisted of aminocyclopyrachlor in acid form and aminopyralid-triisopropanolammonium, each in water and applied alone or in combination. Spray solutions were prepared using an appropriate amount of dilution to form a 1.7 L aqueous spray solution with active ingredients in single and two way combinations. Formulated compounds were applied to the plant material with a backpack sprayer equipped with 8002 nozzles calibrated to deliver 13.5 gallon/acre (127 L/ha) at a spray height of 18-20 in (43-50 cm) above average plant canopy.
The treated plants were kochia or mock cypress (Kochia scoparia, KCHSC). The treated plots and control plots were rated blind at various intervals after application. Ratings were based on a scale of 0-100%, as discussed above, wherein 0% indicates no damage to the undesired vegetation and 100% indicates complete destruction of the undesired vegetation
Colby's equation was used to determine the herbicidal effects expected from the mixtures, as described above. The results were measured at 93 days and 183 days after the first application of the compositions. […] The herbicide tank mix combinations tested, application rates and ratios employed, plant species tested, and results are given below.

Where “and” joins values, the source holds several entries; their conditions need not be identical. Equal entries are not always repeated.

Consider `Nc1nc(C2CC2)nc(C(=O)O)c1Cl` [Aminocyclopyrachlor, 6-amino-5-chloro-2-cyclopropylpyrimidine-4-carboxylic acid], for which the “Mean % weed control” value is, setting by setting: (aminocyclopyrachlor alone 140 g ae/ha, 93 days after application) 56.67% and 56.7%; (aminocyclopyrachlor alone 140 g ae/ha, 183 days after application) 45%.
Take `Nc1cc(Cl)nc(C(=O)O)c1Cl` [Aminopyralid-triisopropanolammonium, aminopyralid-triisopropanolammonium]: the “Mean % weed control” value is, setting by setting: (aminopyralid-triisopropanolammonium alone 70 g ae/ha, 93 days) 30%; (aminopyralid-triisopropanolammonium alone 70 g ae/ha, 183 days) 16.67%; (aminopyralid-triisopropanolammonium alone 120 g ae/ha, 93 days) 20%; (aminopyralid-triisopropanolammonium alone 120 g ae/ha, 183 days) 13.3%.
